Among the data in PubChem BioAssay AID194 (DTP/NCI, 2004) are T/C values, retold here.

For the assay, the system named is BDF1 mice, B16 melanoma s.c., survival/tumor T/C. Put plainly: NCI In Vivo Anticancer Drug Screen. Data for tumor model B16 Melanoma (subcutaneous) in B6D2F1 (BDF1) mice. As for the experimental part: The antitumor activity of compounds was measured in mice bearing transplantable tumors. Survival or tumor size were measured and the results are expressed as the measurement made in the treated group (T) divided by the measurement made in the vehicle treated control group (C). The tumor model used in this assay is B16 Melanoma (subcutaneous) in B6D2F1 (BDF1) mice

Where [1] appears, read: endpoint: median survival time, dose: 50.0 mg/kg/injection, schedule: Q04DX003 (ip), vehicle: saline, higher = longer survival.
Where [2] appears, read: endpoint: median survival time, dose: 100.0 mg/kg/injection, schedule: Q01DX009 (ip), vehicle: saline with Tween-80, higher = longer survival.

Values joined by “and” are separate entries in the source; they are usually repeats but may differ in a detail not shown here. Identical values can stand only once. Results filed as inconclusive are left out.

Turning to `O=NN(CCF)C(=O)N[C@H]1CCCC[C@H]1O`, the T/C is, setting by setting: (endpoint: median survival time, dose: 5.18 mg/kg/injection, schedule: Q01DX007 (ip), vehicle: water, higher = longer survival) 68 % of control; (endpoint: median survival time, dose: 8.64 mg/kg/injection, schedule: Q01DX007 (ip), vehicle: water, higher = longer survival) 105 % of control; (endpoint: median survival time, dose: 14.4 mg/kg/injection, schedule: Q01DX007 (ip), vehicle: water, higher = longer survival) 121 % of control.
Turning to `O=c1[nH]cc(F)c(=O)[nH]1`, the T/C was 77 % of control (endpoint: median survival time, dose: 5.0 mg/kg/injection, schedule: Q01DX009 (ip), vehicle: saline, higher = longer survival); 100 % of control (endpoint: median survival time, dose: 8.4 mg/kg/injection, schedule: Q01DX009 (ip), vehicle: saline, higher = longer survival); 100 % of control (endpoint: median survival time, dose: 10.0 mg/kg/injection, schedule: Q01DX009 (ip), vehicle: Klucel (hydroxypropylcellulose) (HPC), higher = longer survival); 98 % of control and 101 % of control (endpoint: median survival time, dose: 10.0 mg/kg/injection, schedule: Q01DX009 (ip), vehicle: saline with Tween-80, higher = longer survival); 97 % of control (endpoint: median survival time, dose: 14.0 mg/kg/injection, schedule: Q01DX009 (ip), vehicle: saline, higher = longer survival); 100 % of control (endpoint: median survival time, dose: 20.0 mg/kg/injection, schedule: Q01DX009 (ip), vehicle: Klucel (hydroxypropylcellulose) (HPC), higher = longer survival). For the same molecule, the T/C is, setting by setting: (endpoint: median survival time, dose: 20.0 mg/kg/injection, schedule: Q01DX009 (ip), vehicle: saline with Tween-80, higher = longer survival) 111 % of control; (endpoint: median survival time, dose: 23.0 mg/kg/injection, schedule: Q01DX009 (ip), vehicle: saline, higher = longer survival) 107 % of control; (endpoint: median survival time, dose: 23.0 mg/kg/injection, schedule: Q04DX003 (ip), vehicle: saline, higher = longer survival) 100 % of control; (endpoint: median survival time, dose: 39.0 mg/kg/injection, schedule: Q04DX003 (ip), vehicle: saline, higher = longer survival) 97 % of control; (endpoint: median survival time, dose: 40.0 mg/kg/injection, schedule: Q01DX009 (ip), vehicle: saline with Tween-80, higher = longer survival) 98 % of control and 107 % of control; under setting [1], 113 % of control. The T/C runs as follows: (endpoint: median survival time, dose: 65.0 mg/kg/injection, schedule: Q04DX003 (ip), vehicle: saline, higher = longer survival) 86 % of control; (endpoint: median survival time, dose: 108.0 mg/kg/injection, schedule: Q04DX003 (ip), vehicle: saline, higher = longer survival) 107 % of control; (endpoint: median tumor weight (est.), dose: 10.0 mg/kg/injection, schedule: Q01DX009 (ip), vehicle: Klucel (hydroxypropylcellulose) (HPC), higher = larger tumour) 97 % of control and 84 % of control; (endpoint: median tumor weight (est.), dose: 10.0 mg/kg/injection, schedule: Q01DX009 (ip), vehicle: saline with Tween-80, higher = larger tumour) 65 % of control; (endpoint: median tumor weight (est.), dose: 20.0 mg/kg/injection, schedule: Q01DX009 (ip), vehicle: saline with Tween-80, higher = larger tumour) 56 % of control; (endpoint: median tumor weight (est.), dose: 40.0 mg/kg/injection, schedule: Q01DX009 (ip), vehicle: Klucel (hydroxypropylcellulose) (HPC), higher = larger tumour) 75 % of control. For the same molecule, the T/C (endpoint: median tumor weight (est.), dose: 40.0 mg/kg/injection, schedule: Q01DX009 (ip), vehicle: saline with Tween-80, higher = larger tumour) was 39 % of control.
Turning to `CCSC(=O)N1c2ccc(OC)cc2C=CC1C#N` (configuration not stated), the T/C under setting [2] was 109 % of control and the T/C (endpoint: median survival time, dose: 200.0 mg/kg/injection, schedule: Q01DX009 (ip), vehicle: saline with Tween-80, higher = longer survival) was 114 % of control.
For `OCCN1CCN(CC/C=C2/c3ccccc3Sc3ccc(C(F)(F)F)cc32)CC1`, the T/C is 93 % of control (endpoint: median survival time, dose: 1.8 micrograms/kg/injection, schedule: Q01DX009 (ip), vehicle: saline, higher = longer survival); 95 % of control (endpoint: median survival time, dose: 3.7 micrograms/kg/injection, schedule: Q01DX009 (ip), vehicle: saline, higher = longer survival); 109 % of control (endpoint: median survival time, dose: 7.5 micrograms/kg/injection, schedule: Q01DX009 (ip), vehicle: saline, higher = longer survival); 103 % of control (endpoint: median survival time, dose: 15.0 micrograms/kg/injection, schedule: Q01DX009 (ip), vehicle: saline, higher = longer survival); 91 % of control (endpoint: median survival time, dose: 30.0 micrograms/kg/injection, schedule: Q01DX009 (ip), vehicle: saline, higher = longer survival).
With `COC1/C=C\C=C(/C)C(=O)NC2=CC(=O)C(=O)C(=C2O)CC(C)CC(OC)C(O)C(C)/C=C(\C)C1OC(N)=O` (configuration not stated), the T/C runs as follows: (endpoint: median survival time, dose: 0.78 mg/kg/injection, schedule: Q01DX005 (ip), vehicle: other, higher = longer survival) 88 % of control; (endpoint: median survival time, dose: 3.13 mg/kg/injection, schedule: Q01DX005 (ip), vehicle: other, higher = longer survival) 114 % of control; (endpoint: median survival time, dose: 6.25 mg/kg/injection, schedule: Q01DX005 (ip), vehicle: other, higher = longer survival) 105 % of control.
On to `C[n+]1c2ccccc2c(Nc2ccc(NS(=O)(=O)CCCCN=C(N)N)cc2)c2ccc(N)cc21`, for which the T/C reads like this: (endpoint: median survival time, dose: 1.5 mg/kg/injection, schedule: Q01DX009 (sc), vehicle: saline, higher = longer survival) 96 % of control; (endpoint: median survival time, dose: 3.0 mg/kg/injection, schedule: Q01DX009 (sc), vehicle: saline, higher = longer survival) 112 % of control; (endpoint: median survival time, dose: 6.0 mg/kg/injection, schedule: Q01DX009 (sc), vehicle: saline, higher = longer survival) 108 % of control.
In the case of `Cc1c(N)nc(C(CC(N)=O)NCC(N)C(N)=O)nc1C(=O)NC(C(=O)NC(C)C(O)C(C)C(=O)NC(C(=O)NCCc1nc(-c2nc(C(=O)NCCCNCCCc3ccccn3)cs2)cs1)C(C)O)C(OC1OC(CO)C(O)C(O)C1OC1OC(CO)C(O)C(OC(N)=O)C1O)c1cnc[nH]1` (configuration not stated), the T/C (endpoint: median survival time, dose: 0.1 mg/kg/injection, schedule: Q01DX010 (ip), vehicle: water, higher = longer survival) is 101 % of control; the T/C (endpoint: median survival time, dose: 0.2 mg/kg/injection, schedule: Q01DX010 (ip), vehicle: water, higher = longer survival) is 116 % of control and 124 % of control; the T/C (endpoint: median survival time, dose: 0.4 mg/kg/injection, schedule: Q01DX010 (ip), vehicle: water, higher = longer survival) was 96 % of control and 124 % of control; the T/C (endpoint: median survival time, dose: 1.6 mg/kg/injection, schedule: Q01DX010 (ip), vehicle: water, higher = longer survival) was 117 % of control; the T/C (endpoint: median survival time, dose: 3.2 mg/kg/injection, schedule: Q01DX010 (ip), vehicle: water, higher = longer survival) is 88 % of control.
With `C[C@H](CN1CC(=O)NC(=O)C1)N1CC(=O)NC(=O)C1`, the T/C runs as follows: (endpoint: median survival time, dose: 6.25 mg/kg/injection, schedule: Q04DX003 (ip), vehicle: saline, higher = longer survival) 122 % of control; (endpoint: median survival time, dose: 8.0 mg/kg/injection, schedule: Q01DX009 (ip), vehicle: saline, higher = longer survival) 109 % of control; (endpoint: median survival time, dose: 12.5 mg/kg/injection, schedule: Q04DX003 (ip), vehicle: saline, higher = longer survival) 102 % of control; (endpoint: median survival time, dose: 16.0 mg/kg/injection, schedule: Q01DX009 (ip), vehicle: saline, higher = longer survival) 119 % of control; (endpoint: median survival time, dose: 16.0 mg/kg/injection, schedule: Q01DX009 (ip), vehicle: water, higher = longer survival) 96 % of control; (endpoint: median survival time, dose: 25.0 mg/kg/injection, schedule: Q04DX003 (ip), vehicle: saline, higher = longer survival) 115 % of control. The T/C is 112 % of control (endpoint: median survival time, dose: 32.0 mg/kg/injection, schedule: Q01DX009 (ip), vehicle: saline, higher = longer survival); 109 % of control (endpoint: median survival time, dose: 32.0 mg/kg/injection, schedule: Q01DX009 (ip), vehicle: water, higher = longer survival); 111 % of control under setting [1]; 115 % of control (endpoint: median survival time, dose: 100.0 mg/kg/injection, schedule: Q04DX003 (ip), vehicle: saline, higher = longer survival); 122 % of control (endpoint: median survival time, dose: 200.0 mg/kg/injection, schedule: Q04DX003 (ip), vehicle: saline, higher = longer survival); 115 % of control (endpoint: median survival time, dose: 800.0 mg/kg/injection, schedule: Q04DX003 (ip), vehicle: saline, higher = longer survival).
With `C1CCC2[N-]CC3CCCCC3[N-]CC3CCCCC3[N-]CC3CCCCC3[N-]CC2C1.[Cu]` (configuration not stated), the T/C runs as follows: (endpoint: median survival time, dose: 5.12 mg/kg/injection, schedule: Q01DX005 (ip), vehicle: Klucel (hydroxypropylcellulose) (HPC), higher = longer survival) 98 % of control; (endpoint: median survival time, dose: 6.4 mg/kg/injection, schedule: Q01DX005 (ip), vehicle: Klucel (hydroxypropylcellulose) (HPC), higher = longer survival) 95 % of control and 96 % of control and 102 % of control; (endpoint: median survival time, dose: 8.0 mg/kg/injection, schedule: Q01DX001 (ip), vehicle: Klucel (hydroxypropylcellulose) (HPC), higher = longer survival) 93 % of control and 95 % of control and 106 % of control; (endpoint: median survival time, dose: 8.0 mg/kg/injection, schedule: Q01DX005 (ip), vehicle: Klucel (hydroxypropylcellulose) (HPC), higher = longer survival) 96 % of control and 97 % of control and 98 % of control; (endpoint: median survival time, dose: 10.0 mg/kg/injection, schedule: Q01DX001 (ip), vehicle: Klucel (hydroxypropylcellulose) (HPC), higher = longer survival) 95 % of control and 107 % of control and 109 % of control; (endpoint: median survival time, dose: 12.5 mg/kg/injection, schedule: Q01DX001 (ip), vehicle: Klucel (hydroxypropylcellulose) (HPC), higher = longer survival) 93 % of control and 94 % of control and 119 % of control.
Consider `Cc1[nH]nc(-c2ccon2)c1N=O`, for which the T/C was 91 % of control (endpoint: median survival time, dose: 12.5 mg/kg/injection, schedule: Q01DX009 (ip), vehicle: saline with Tween-80, higher = longer survival); 96 % of control (endpoint: median survival time, dose: 25.0 mg/kg/injection, schedule: Q01DX009 (ip), vehicle: saline with Tween-80, higher = longer survival); 100 % of control (endpoint: median survival time, dose: 50.0 mg/kg/injection, schedule: Q01DX009 (ip), vehicle: saline with Tween-80, higher = longer survival); 87 % of control under setting [2].
